Results taken from PMC8425032, “Functional characterization of a highly specific L-arabinose transporter from Trichoderma reesei” (Microbial Cell Factories, 2021).

Key:
Format in all cases: cell-based
[1] = molecular target: T1, A. thaliana STP7 (Arabidopsis thaliana, UniProt O04249); assay: […]-L-arabinose uptake, yeast cells; details: 5 mM L-arabinose, sodium citrate pH 4.5, 28 °C; labelled compound
T1 construct: no tag mentioned
T1 sequence (O04249 1-513): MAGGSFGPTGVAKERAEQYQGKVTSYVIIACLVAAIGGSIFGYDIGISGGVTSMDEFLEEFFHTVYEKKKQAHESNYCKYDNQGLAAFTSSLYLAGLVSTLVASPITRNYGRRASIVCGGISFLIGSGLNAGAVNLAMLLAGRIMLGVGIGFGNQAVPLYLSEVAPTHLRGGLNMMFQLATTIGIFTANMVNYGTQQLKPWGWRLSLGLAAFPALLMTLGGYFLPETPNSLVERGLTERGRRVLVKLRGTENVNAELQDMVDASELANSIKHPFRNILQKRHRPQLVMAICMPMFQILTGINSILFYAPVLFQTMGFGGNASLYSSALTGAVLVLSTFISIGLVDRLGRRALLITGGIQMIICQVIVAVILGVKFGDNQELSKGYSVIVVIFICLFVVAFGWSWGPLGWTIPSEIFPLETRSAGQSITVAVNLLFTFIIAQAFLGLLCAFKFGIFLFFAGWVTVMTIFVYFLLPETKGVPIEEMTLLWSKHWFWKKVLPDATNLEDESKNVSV

[2] = molecular target: T2, P. chrysogenum AraT (Penicillium rubens, UniProt B6HE12); assay: […]-L-arabinose uptake, yeast cells; details: 0.167 mM L-arabinose at pH 6.5 and 5 mM at pH 4.5; 28 °C; labelled compound
T2 construct: gene Pc20g01790; no tag mentioned
T2 sequence (B6HE12 1-511): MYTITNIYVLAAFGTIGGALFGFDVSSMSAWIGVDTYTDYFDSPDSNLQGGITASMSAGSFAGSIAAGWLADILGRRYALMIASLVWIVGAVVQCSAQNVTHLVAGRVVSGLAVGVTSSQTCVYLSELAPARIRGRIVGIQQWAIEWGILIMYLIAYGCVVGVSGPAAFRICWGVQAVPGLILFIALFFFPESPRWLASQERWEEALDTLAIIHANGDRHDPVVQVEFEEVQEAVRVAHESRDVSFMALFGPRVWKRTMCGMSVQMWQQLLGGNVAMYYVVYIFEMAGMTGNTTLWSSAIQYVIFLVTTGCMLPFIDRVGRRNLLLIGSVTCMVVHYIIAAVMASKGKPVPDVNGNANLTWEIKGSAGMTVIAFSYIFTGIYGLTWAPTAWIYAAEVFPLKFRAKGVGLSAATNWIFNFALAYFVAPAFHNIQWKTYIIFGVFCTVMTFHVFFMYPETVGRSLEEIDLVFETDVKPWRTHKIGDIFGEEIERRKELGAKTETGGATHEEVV

[3] = molecular target: T3, Trire2_104072 (Trichoderma reesei, UniProt Q1EG32, H388P, form not given); assay: two-electrode voltage clamp, sugar-induced current, Xenopus oocytes; details: pH 5.5, -50 mV, sodium-free ND-96 buffer; proton symport
T3 construct: gene xlt1; full-length RUT-C30 version, yeast codon-optimised synthetic gene; no tag mentioned; P388H version XLT1 from plasmid B1687
T3 sequence (Q1EG32 entry or part of it H388P, form open): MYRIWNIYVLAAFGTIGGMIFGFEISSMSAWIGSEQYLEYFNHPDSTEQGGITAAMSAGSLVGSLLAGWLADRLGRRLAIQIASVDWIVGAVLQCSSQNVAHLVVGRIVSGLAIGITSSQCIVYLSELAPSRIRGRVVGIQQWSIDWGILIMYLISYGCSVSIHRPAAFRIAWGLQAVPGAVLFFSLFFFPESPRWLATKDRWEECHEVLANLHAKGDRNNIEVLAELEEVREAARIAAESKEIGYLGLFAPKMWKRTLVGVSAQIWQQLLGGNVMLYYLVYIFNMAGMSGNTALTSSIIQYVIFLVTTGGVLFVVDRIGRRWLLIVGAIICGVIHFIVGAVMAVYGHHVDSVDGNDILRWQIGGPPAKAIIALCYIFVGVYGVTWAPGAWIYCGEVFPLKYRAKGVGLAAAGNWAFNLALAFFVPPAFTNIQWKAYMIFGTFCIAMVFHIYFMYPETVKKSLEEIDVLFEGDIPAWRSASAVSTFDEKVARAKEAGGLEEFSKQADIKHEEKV

[4] = molecular target: T3, Trire2_104072; assay: inhibition of […]-L-arabinose uptake, yeast cells; details: 833 µM; fivefold excess over 0.167 mM labelled L-arabinose, pH 6.5, 28 °C
[5] = molecular target: T4, Trire2_104072 (Trichoderma reesei, UniProt Q1EG32); assay: inhibition of […]-L-arabinose uptake, yeast cells; details: fivefold excess over 0.167 mM labelled L-arabinose, pH 6.5, 28 °C
T4 construct: gene xlt1; full-length RUT-C30 version, yeast codon-optimised synthetic gene; no tag mentioned; P388H version XLT1 from plasmid B1687
T4 sequence (Q1EG32 entry or part of it): as the sequence (Q1EG32 entry or part of it H388P, form open) above, with P388H counted along it

Km [3] [mM] | Inhibition of L-arabinose uptake by competing sugar (glucose in 22.1, xylose in 22.2) [4] [%] | % inhibition at 0.833 mM [5] [%] | Compound | 14C-L-arabinose uptake, yeast cells [1] | 14C-L-arabinose uptake, yeast cells [2]
0.207 ± 0.079 | – | – | OC1OC[C@H](O)[C@H](O)[C@H]1O (stereo partly drawn) [L-arabinose] | The strain expressing A. thaliana STP7 had also significantly higher uptake | XLT1 or P. chrysogenum AraT had significantly higher L-arabinose uptake rates than the control strain
9.16 ± 3.35 | 10.9±6.3 | 13.4±7.9 | OC1OC[C@@H](O)[C@H](O)[C@H]1O (stereo partly drawn) [D-xylose] | – | –
– | 0±8.2 | 4.5±17.6 | OC[C@H]1OC(O)[C@H](O)[C@@H](O)[C@@H]1O (stereo partly drawn) [D-glucose] | – | –
